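These data come from cells grown in 96-well plates and exposed to compound for 48 hours at five concentrations. GI50 marks 50% less growth.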 Active and inactive are the calls of the source. Cut-off read from the data, not from the text of the source: active = GI50 up to about 1.1 µM and inactive = higher.
How the values were obtained:
Assay in all cases: NCI anticancer screen, dose series, 48 h
SK-MEL-2 = test system: SK-MEL-2
HOP-62 = test system: HOP-62
IGROV-1 = test system: IGROV-1
SK-MEL-5 = test system: SK-MEL-5
SK-MEL-28 = test system: SK-MEL-28
U-251 = test system: U-251
HL-60 = test system: HL-60
SNB-75 = test system: SNB-75
SNB-78 = test system: SNB-78
SF-295 = test system: SF-295
OVCAR-8 = test system: OVCAR-8
OVCAR-3 = test system: OVCAR-3
SF-539 = test system: SF-539
BT-549 = test system: BT-549
DLD-1 = test system: DLD-1
HT-29 = test system: HT-29
MOLT-4 = test system: MOLT-4
UACC-257 = test system: UACC-257
NCI-H522 = test system: NCI-H522
A498 = test system: A498
T47D = test system: T47D
DMS-114 = test system: DMS-114
NCI-H460 = test system: NCI-H460
SN12C = test system: SN12C
SF-268 = test system: SF-268
COLO 205 = test system: COLO 205
NCI-H23 = test system: NCI-H23
HOP-92 = test system: HOP-92
UACC-62 = test system: UACC-62
OVCAR-5 = test system: OVCAR-5
CCRF-CEM = test system: CCRF-CEM
HCT-116 = test system: HCT-116
SK-OV-3 = test system: SK-OV-3
LOX IMVI = test system: LOX IMVI
M19-MEL = test system: M19-MEL
HCT-15 = test system: HCT-15
K562 = test system: K562
MDA-MB-231 = test system: MDA-MB-231
NCI-H226 = test system: NCI-H226
RXF 393 = test system: RXF 393
ACHN = test system: ACHN
HOP-18 = test system: HOP-18
UO-31 = test system: UO-31
SNB-19 = test system: SNB-19
SW-620 = test system: SW-620
NCI/ADR-RES = test system: NCI/ADR-RES
XF498 = test system: XF498
RPMI-8226 = test system: RPMI-8226
KM-20L2 = test system: KM-20L2
Malme-3M = test system: Malme-3M
KM12 = test system: KM12
EKVX = test system: EKVX
DMS-273 = test system: DMS-273
CAKI-1 = test system: CAKI-1
A549 = test system: A549
HCC 2998 = test system: HCC 2998
MCF7 = test system: MCF7
786-0 = test system: 786-0
OVCAR-4 = test system: OVCAR-4
LXFL 529 = test system: LXFL 529
M14 = test system: M14
TK-10 = test system: TK-10
MDA-MB-435 = test system: MDA-MB-435
MDA-N = test system: MDA-N
PC-3 = test system: PC-3
SR = test system: SR
DU-145 = test system: DU-145
Hs-578T = test system: Hs-578T

CCCCCCCCCCCCCCCCCCOP(=O)([O-])OCC[N+](C)(C)C [OCTADECYLPHOSPHONOCHOLINE]
GI50 (SK-MEL-2): 0.998 µM (active) | GI50 (HOP-62): 0.301 µM (active) | GI50 (IGROV-1): 0.614 µM (active) | GI50 (SK-MEL-5): 1.42 µM (inactive) | GI50 (SK-MEL-28): 8.22 µM (inactive) | GI50 (U-251): 0.695 µM (active) | GI50 (HL-60): 0.317 µM (active) | GI50 (SNB-75): 0.836 µM (active) | GI50 (SNB-78): 10.2 µM (inactive) | GI50 (SF-295): 0.736 µM (active) | GI50 (OVCAR-8): 1.02 µM (active) | GI50 (OVCAR-3): 0.877 µM (active) | GI50 (SF-539): 1.2 µM (inactive) | GI50 (BT-549): 1.22 µM (inactive) | GI50 (DLD-1): 4.7 µM (inactive) | GI50 (HT-29): 0.608 µM (active) | GI50 (MOLT-4): 0.295 µM (active) | GI50 (UACC-257): 1.19 µM (inactive) | GI50 (NCI-H522): 0.419 µM (active) | GI50 (A498): 8.41 µM (inactive) | GI50 (T47D): < 0.0209 µM (active) | GI50 (DMS-114): 13.6 µM (inactive) | GI50 (NCI-H460): 0.41 µM (active) | GI50 (SN12C): 0.502 µM (active) | GI50 (SF-268): 0.807 µM (active) | GI50 (COLO 205): 0.146 µM (active) | GI50 (NCI-H23): 1.13 µM (inactive) | GI50 (HOP-92): 0.33 µM (active) | GI50 (UACC-62): 4.4 µM (inactive) | GI50 (OVCAR-5): 1.53 µM (inactive) | GI50 (CCRF-CEM): 0.366 µM (active) | GI50 (HCT-116): 0.826 µM (active) | GI50 (SK-OV-3): 5.69 µM (inactive) | GI50 (LOX IMVI): 0.863 µM (active) | GI50 (M19-MEL): 4.24 µM (inactive) | GI50 (HCT-15): 0.644 µM | GI50 (K562): 0.957 µM (active) | GI50 (MDA-MB-231): 0.0447 µM (active) | GI50 (NCI-H226): 0.787 µM (active) | GI50 (RXF 393): 2.45 µM (inactive) | GI50 (ACHN): < 0.0488 µM (active) | GI50 (HOP-18): 15.9 µM (inactive) | GI50 (UO-31): 1.13 µM (inactive) | GI50 (SNB-19): 0.849 µM (active) | GI50 (SW-620): 0.771 µM (active) | GI50 (NCI/ADR-RES): 1.32 µM (inactive) | GI50 (XF498): 12.4 µM (inactive) | GI50 (RPMI-8226): 0.276 µM (active) | GI50 (KM-20L2): 3.38 µM (inactive) | GI50 (Malme-3M): 1.02 µM (active) | GI50 (KM12): 0.273 µM (active) | GI50 (EKVX): 2.14 µM (inactive) | GI50 (DMS-273): 1.74 µM (inactive) | GI50 (CAKI-1): 0.321 µM (active) | GI50 (A549): 1.35 µM (inactive) | GI50 (HCC 2998): 0.245 µM (active) | GI50 (MCF7): 0.382 µM (active)

O=C(NC(=S)Nc1ccccc1)c1ccc([N+](=O)[O-])cc1
GI50 (HOP-62): > 100 µM (inactive) | GI50 (IGROV-1): 71.9 µM (inactive) | GI50 (SK-MEL-5): 36 µM (inactive) | GI50 (SK-MEL-28): > 100 µM (inactive) | GI50 (HL-60): 36.8 µM (inactive) | GI50 (SNB-75): > 100 µM (inactive) | GI50 (SNB-78): > 100 µM (inactive) | GI50 (SF-295): 45.1 µM (inactive) | GI50 (OVCAR-8): > 100 µM (inactive) | GI50 (OVCAR-3): 92.5 µM (inactive) | GI50 (DLD-1): 47.9 µM (inactive) | GI50 (HT-29): 80.9 µM (inactive) | GI50 (MOLT-4): 71.8 µM (inactive) | GI50 (UACC-257): 60.3 µM (inactive) | GI50 (NCI-H522): 18.3 µM (inactive) | GI50 (DMS-114): 17.5 µM (inactive) | GI50 (NCI-H460): 37.1 µM (inactive) | GI50 (SN12C): > 100 µM (inactive) | GI50 (SF-268): > 100 µM (inactive) | GI50 (COLO 205): 47.3 µM (inactive) | GI50 (NCI-H23): 4.8 µM (inactive) | GI50 (HOP-92): 35.9 µM (inactive) | GI50 (UACC-62): 75.7 µM (inactive) | GI50 (OVCAR-5): 2.28 µM (inactive) | GI50 (CCRF-CEM): 31.3 µM (inactive) | GI50 (HCT-116): > 100 µM (inactive) | GI50 (786-0): > 100 µM (inactive) | GI50 (SK-OV-3): 50.1 µM (inactive) | GI50 (LOX IMVI): 84.1 µM (inactive) | GI50 (OVCAR-4): 3.4 µM (inactive) | GI50 (M19-MEL): > 100 µM (inactive) | GI50 (HCT-15): 38.5 µM | GI50 (K562): 52 µM (inactive) | GI50 (LXFL 529): > 100 µM (inactive) | GI50 (ACHN): 83.9 µM (inactive) | GI50 (HOP-18): > 100 µM (inactive) | GI50 (M14): > 100 µM (inactive) | GI50 (UO-31): 45.8 µM (inactive) | GI50 (SW-620): > 100 µM (inactive) | GI50 (XF498): > 100 µM (inactive) | GI50 (RPMI-8226): 28.6 µM (inactive) | GI50 (KM-20L2): > 100 µM (inactive) | GI50 (Malme-3M): > 100 µM (inactive) | GI50 (TK-10): > 100 µM (inactive) | GI50 (KM12): 3.46 µM (inactive) | GI50 (EKVX): > 100 µM (inactive) | GI50 (DMS-273): 60.3 µM (inactive) | GI50 (CAKI-1): 73.8 µM (inactive) | GI50 (A549): 41.9 µM (inactive) | GI50 (HCC 2998): > 100 µM (inactive)

ClCCCN1CCN(CCCl)CC1
GI50 (SK-MEL-2): 238 µM (inactive) | GI50 (HOP-62): 24.1 µM (inactive) | GI50 (IGROV-1): 120 µM (inactive) | GI50 (SK-MEL-5): 239 µM (inactive) | GI50 (SK-MEL-28): 491 µM (inactive) | GI50 (U-251): 118 µM (inactive) | GI50 (HL-60): 4.51 µM (inactive) | GI50 (MDA-MB-435): 282 µM (inactive) | GI50 (SNB-75): 119 µM (inactive) | GI50 (SNB-78): 135 µM (inactive) | GI50 (SF-295): 34.3 µM (inactive) | GI50 (OVCAR-8): 120 µM (inactive) | GI50 (MDA-N): 191 µM (inactive) | GI50 (OVCAR-3): 167 µM (inactive) | GI50 (SF-539): 35.6 µM (inactive) | GI50 (BT-549): 124 µM (inactive) | GI50 (DLD-1): 167 µM (inactive) | GI50 (HT-29): 242 µM (inactive) | GI50 (MOLT-4): 5.24 µM (inactive) | GI50 (UACC-257): 284 µM (inactive) | GI50 (NCI-H522): 121 µM (inactive) | GI50 (A498): 261 µM (inactive) | GI50 (T47D): 95.5 µM (inactive) | GI50 (DMS-114): 28.9 µM (inactive) | GI50 (NCI-H460): 6.24 µM (inactive) | GI50 (SN12C): 34.4 µM (inactive) | GI50 (SF-268): 57.3 µM (inactive) | GI50 (COLO 205): 161 µM (inactive) | GI50 (NCI-H23): 69.8 µM (inactive) | GI50 (HOP-92): 105 µM (inactive) | GI50 (UACC-62): 10.5 µM (inactive) | GI50 (PC-3): 383 µM (inactive) | GI50 (OVCAR-5): 250 µM (inactive) | GI50 (CCRF-CEM): 7.62 µM (inactive) | GI50 (HCT-116): 195 µM (inactive) | GI50 (786-0): 49.7 µM (inactive) | GI50 (SK-OV-3): 56.2 µM (inactive) | GI50 (LOX IMVI): 59.8 µM (inactive) | GI50 (SR): 7.98 µM (inactive) | GI50 (OVCAR-4): 186 µM (inactive) | GI50 (DU-145): 57.3 µM (inactive) | GI50 (M19-MEL): 226 µM (inactive) | GI50 (HCT-15): 189 µM | GI50 (K562): 212 µM (inactive) | GI50 (MDA-MB-231): 324 µM (inactive) | GI50 (NCI-H226): 215 µM (inactive) | GI50 (RXF 393): 166 µM (inactive) | GI50 (ACHN): 11.1 µM (inactive) | GI50 (HOP-18): > 553 µM (inactive) | GI50 (M14): 137 µM (inactive) | GI50 (Hs-578T): 305 µM (inactive) | GI50 (UO-31): 109 µM (inactive) | GI50 (SNB-19): 182 µM (inactive) | GI50 (SW-620): 252 µM (inactive) | GI50 (NCI/ADR-RES): 127 µM (inactive) | GI50 (XF498): 46.3 µM (inactive) | GI50 (RPMI-8226): 205 µM (inactive) | GI50 (KM-20L2): 269 µM (inactive) | GI50 (Malme-3M): 142 µM (inactive) | GI50 (TK-10): 357 µM (inactive) | GI50 (KM12): 552 µM (inactive) | GI50 (EKVX): 352 µM (inactive) | GI50 (DMS-273): 28.9 µM (inactive) | GI50 (CAKI-1): 15.2 µM (inactive) | GI50 (A549): 110 µM (inactive) | GI50 (HCC 2998): 346 µM (inactive) | GI50 (MCF7): 65.5 µM (inactive)

Source: ChEMBL document CHEMBL1201862, “PubChem BioAssay data set” (2004)
